In article PMC4552634, “A New Set of Chemical Starting Points with Plasmodium falciparum Transmission-Blocking Potential for Antimalarial Drug Discovery” (PLoS ONE, 2015):

Tested on: P. falciparum stage V gametocytes
Experiment: microbe, parasite or virus in culture
Parameters: BacTiter-Glo ATP luminescence viability of purified stage V gametocytes in 384-well plates, per cent inhibition versus DMSO
Conditions: Plasmodium falciparum, 48 h, read-out: % Inhibition

SMILES | inhibition at 5 µM
COc1ccc2nccc(NN=Cc3ccc(N(C)C)cc3)c2c1 [TCMDC-142145] | -119%
COc1ccc2c(NN=Cc3ccc(N(C)C)cc3)ccnc2c1 [TCMDC-142146] | 97.5%
FC(F)(F)c1ccc2nccc(NN=Cc3ccccc3Cl)c2c1 [TCMDC-142147] | -24.8%
FC(F)(F)c1ccc2nccc(NN=Cc3cccc(Cl)c3)c2c1 [TCMDC-142148] | 56%
FC(F)(F)c1ccc2c(NN=Cc3cccc(Cl)c3)ccnc2c1 [TCMDC-142149] | -44.9%
O=[N+]([O-])c1cccc(/C=N/Nc2ccnc3ccc(C(F)(F)F)cc23)c1 [TCMDC-142150] | 7.31%
Fc1cccc(C=NNc2ccnc3ccc(C(F)(F)F)cc23)c1 [TCMDC-142151] | -62.1%
Fc1ccc(C=NNc2ccnc3ccc(C(F)(F)F)cc23)cc1 [TCMDC-142152] | -15.6%
FC(F)(F)c1ccc2nccc(NN=CC=Cc3ccccc3)c2c1 [TCMDC-142153] | -25.7%
Cc1cc(NN=Cc2ccccc2Cl)c2cc(C(F)(F)F)ccc2n1 [TCMDC-142154] | -77.2%
Cc1cc(NN=Cc2ccc(Cl)cc2)c2cc(C(F)(F)F)ccc2n1 [TCMDC-142155] | -3.11%
Cc1cc(N/N=C/c2ccccc2[N+](=O)[O-])c2cc(C(F)(F)F)ccc2n1 [TCMDC-142157] | 4.83%
Cc1cc(NN=Cc2ccc(F)cc2)c2cc(C(F)(F)F)ccc2n1 [TCMDC-142158] | -75.7%
Cc1cc(NN=Cc2ccc(F)cc2)c2ccc(C(F)(F)F)cc2n1 [TCMDC-142159] | -183%
Cc1cc(NN=Cc2ccc(Cl)cc2)c2ccc(F)cc2n1 [TCMDC-142160] | -41.4%
Cc1cc(NN=Cc2cccc(Cl)c2)c2ccc(F)cc2n1 [TCMDC-142161] | -34%
Cc1cc(NN=Cc2ccccc2Cl)c2ccc(F)cc2n1 [TCMDC-142162] | -52.4%
Cc1cc(NN=Cc2ccc(Cl)cc2)c2cc(F)ccc2n1 [TCMDC-142163] | 56.5%
Cc1cc(NN=Cc2cccc(Cl)c2)c2cc(F)ccc2n1 [TCMDC-142164] | -59.6%
Cc1cc(NN=Cc2ccccc2Cl)c2cc(F)ccc2n1 [TCMDC-142165] | -39.2%
Cc1cc(N/N=C/c2cccc([N+](=O)[O-])c2)c2cc(F)ccc2n1 [TCMDC-142166] | -21.6%
Cc1cc(N/N=C/c2ccccc2[N+](=O)[O-])c2cc(F)ccc2n1 [TCMDC-142167] | -36.5%

SMILES | inhibition at 5 µM
Cc1cc(N/N=C/c2ccccc2[N+](=O)[O-])c2ccc(F)cc2n1 [TCMDC-142168] | -45.1%
Cc1cc(N/N=C/c2cccc([N+](=O)[O-])c2)c2ccc(F)cc2n1 [TCMDC-142169] | 109%
Cc1cc(N/N=C/c2ccc([N+](=O)[O-])cc2)c2ccc(F)cc2n1 [TCMDC-142170] | 105%
Cc1cc(NN=Cc2ccccc2F)c2cc(F)ccc2n1 [TCMDC-142171] | -53.4%
Cc1cc(NN=Cc2ccc(F)cc2)c2cc(F)ccc2n1 [TCMDC-142172] | -47.2%
Cc1cc(NN=Cc2cccc(F)c2)c2cc(F)ccc2n1 [TCMDC-142173] | -60.6%
Cc1cc(NN=Cc2cccc(F)c2)c2ccc(F)cc2n1 [TCMDC-142174] | -36.6%
Cc1cc(NN=Cc2ccccc2)c2cc(F)ccc2n1 [TCMDC-142175] | -16.9%
Cc1cc(NN=CC=Cc2ccccc2)c2ccc(F)cc2n1 [TCMDC-142176] | -23.9%
Cc1cc(NN=CC=Cc2ccccc2)c2cc(F)ccc2n1 [TCMDC-142177] | -42.3%
N=C(N)c1ccc(/C=C/c2ccc(C(=N)N)cc2O)cc1 [TCMDC-142178] | 1.54%
CC1(C)N=C(N)N=C(N)N1c1ccc2ccccc2c1 [TCMDC-142179] | -17.5%
CC1(C)N=C(N)N=C(N)N1c1ccc(Cl)c(Cl)c1 [TCMDC-142180] | 61.6%
COc1cccc2c(NN=Cc3ccccc3F)ccnc12 [TCMDC-142181] | -26%
CCCCCC(C)C(C)c1cc(O)c2c3c(c(=O)oc2c1)CN(Cc1ccccc1)CC3 (stereo not shown) [TCMDC-142182] | 75.7%
COc1cccc(C=NNc2cc(C)nc3ccccc23)c1 [TCMDC-142183] | -15.9%
COc1ccc(C=NNc2cc(C)nc3ccccc23)cc1OC [TCMDC-142184] | -5.19%
COc1ccc(C=NNc2cc(C)nc3ccccc23)c2ccccc12 [TCMDC-142185] | 93.9%
CCn1c2ccccc2c2cc(C=NNc3cc(C)nc4ccccc34)ccc21 [TCMDC-142186] | 85.3%
CCOc1ccc2c(NN=Cc3ccccn3)cc(C)nc2c1 [TCMDC-142187] | 20.9%
N=C(N)c1cccc(OCCCOc2cccc(NC(=O)Nc3ccc([N+](=O)[O-])cc3)c2)c1 [TCMDC-142189] | 24.9%
CCNc1c2ccc(Cl)cc2nc2ccc(OC)cc12 [TCMDC-142190] | -21.5%

SMILES | inhibition at 5 µM
CCCCCCCCNc1c2ccc(Cl)cc2nc2ccc(OC)cc12 [TCMDC-142191] | 0.773%
CCOc1ccc2c(NN=Cc3cccc(Cl)c3)cc(C)nc2c1 [TCMDC-142192] | -2.16%
CCOc1ccc2c(NN=Cc3ccccc3F)cc(C)nc2c1 [TCMDC-142193] | 98.2%
CCOc1ccc2c(NN=Cc3cccc(F)c3)cc(C)nc2c1 [TCMDC-142194] | -6.63%
CCOc1ccc2c(N/N=C/c3cccc([N+](=O)[O-])c3)cc(C)nc2c1 [TCMDC-142195] | 115%
COc1ccc(C=NNc2cc(C)nc3ccccc23)c(OC)c1 [TCMDC-142196] | 98.4%
COc1cccc(C=NNc2cc(C)nc3c(OC)cccc23)c1 [TCMDC-142197] | 92.7%
COc1cc(OC)c(OC)cc1C=NNc1cc(C)nc2ccccc12 [TCMDC-142198] | 100%
COc1ccc2nc(C)cc(NN=Cc3cc(OC)c(OC)cc3OC)c2c1 [TCMDC-142199] | -26%
COc1cc(C=NNc2cc(C)nc3c(OC)cccc23)cc(OC)c1OC [TCMDC-142200] | 84.3%
CCOc1ccc2c(NN=Cc3ccc(F)cc3)cc(C)nc2c1 [TCMDC-142201] | 105%
O=[N+]([O-])c1ccccc1C=NNc1c2c(nc3ccccc13)CCCC2 [TCMDC-142202] | -53.6%
CCOc1ccc2c(NN=Cc3ccccc3OC)cc(C)nc2c1 [TCMDC-142203] | 87.4%
CCOc1ccc2c(NN=Cc3cccc(OC)c3)cc(C)nc2c1 [TCMDC-142204] | 80.8%
CCOc1ccc2c(NN=Cc3cccc(OC)c3OC)cc(C)nc2c1 [TCMDC-142205] | 40.8%
CCOc1ccc2c(NN=Cc3ccc(OC)c(OC)c3)cc(C)nc2c1 [TCMDC-142206] | 95.7%
CCOc1ccc2c(NN=Cc3cc(OC)c(OC)cc3OC)cc(C)nc2c1 [TCMDC-142207] | 101%
CCOc1ccc2c(NN=Cc3cc(OC)c(OC)c(OC)c3)cc(C)nc2c1 [TCMDC-142208] | 101%
CCOc1ccc2c(NN=Cc3c4ccccc4cc4ccccc34)cc(C)nc2c1 [TCMDC-142209] | 106%
CC(C)(C)CC(C)(C)c1ccc(O)c(C(=O)Nc2cccc([N+](=O)[O-])c2)c1 [TCMDC-142210] | 8.52%
CC(C)(C)CC(C)(C)c1ccc(O)c(C(=O)Nc2ccc([N+](=O)[O-])cc2)c1 [TCMDC-142211] | -13%
CN(C)c1ccc(C=Cc2ccc3ccccc3n2)c(Cl)c1 [TCMDC-142212] | 36.3%

SMILES | inhibition at 5 µM
Cc1ccc2c(c1[N+](=O)[O-])N=NCC2Oc1ccccc1 (stereo not shown) [TCMDC-142213] | 38.1%
CC(C)(C)c1cc(Cl)cc(C(=O)Nc2cc([N+](=O)[O-])ccc2Cl)c1O [TCMDC-142214] | 36.2%
COc1ccc(C=NNc2ccnc3ccccc23)c2ccccc12 [TCMDC-142215] | -96.9%
COc1ccc(C=NNc2cc(C)nc3c(C)cccc23)c2ccccc12 [TCMDC-142216] | -26.1%
COc1ccc(C=NNc2cc(C)nc3ccc(C)cc23)c2ccccc12 [TCMDC-142217] | 103%
Oc1ccc(Br)cc1-c1nc2ccc(Cl)cc2nc1-c1cc(Br)ccc1O [TCMDC-142219] | 82.4%
Cc1cc2nc(-c3cc(Br)ccc3O)c(-c3cc(Br)ccc3O)nc2cc1C [TCMDC-142220] | 24.2%
CC(C)NCC(O)COc1ccc(Cc2ccc(OCC(O)CNC(C)C)cc2)cc1 (stereo not shown) [TCMDC-142221] | 77%
CCN(CC)CC(O)c1cc(-c2ccc(OC)cc2)nc2cc(Cl)ccc12 (stereo not shown) [TCMDC-142222] | -13%
CCCCCCCCNCC(O)c1cc(-c2ccc(Cl)cc2)nc2cc(C)ccc12 (stereo not shown) [TCMDC-142223] | -7.88%
COc1ccc(OC)c2c1CC1NCC2c2c(OC)ccc(OC)c21 (stereo not shown) [TCMDC-142224] | 2.64%
CCCCCCCCNCC(O)c1ccc(Cl)c(Cl)c1 (stereo not shown) [TCMDC-142225] | 17.7%
CCN(Cc1ccccc1)CC(O)c1ccc(Cl)c(Cl)c1 (stereo not shown) [TCMDC-142226] | 14.8%
CCCCNC(c1ccc(Cl)cc1)C(O)c1ccc(Cl)cc1 (stereo not shown) [TCMDC-142227] | -29.7%
OC(c1cc(C(F)(F)F)nc2c(F)cccc12)C1CCCCN1 (stereo not shown) [TCMDC-142228] | 37.8%
CCN(CC)CC(O)c1cc(-c2ccc(C)cc2)nc2c(C)cc(C)cc12 (stereo not shown) [TCMDC-142229] | -117%
N#Cc1ccc(S(=O)(=O)N2C(c3cccc([N+](=O)[O-])c3)C(C(=O)c3ccccc3)N(C3CCCCC3)C2c2cccc([N+](=O)[O-])c2)cc1 (stereo not shown) [TCMDC-142230] | 43.9%
COc1ccc(C=NNc2c3ccccc3nc3ccccc23)c2ccccc12 [TCMDC-142231] | -139%
Cc1c(N=O)cc(C(C)(C)C)c(O)c1C(=O)Nc1ccc([N+](=O)[O-])cc1Cl [TCMDC-142233] | 32.7%
COc1ccc2ccccc2c1C=NNc1cc(C)nc2c(C)cccc12 [TCMDC-142234] | 35.2%

Same assay, conditions: Plasmodium falciparum, 48 h; read-out: % Inhibition

SMILES | inhibition at 5 µM
CCCCCC(C)C(C)c1cc(O)c2c(c1)OC(C)(C)c1cnccc1-2 (stereo not shown) [TCMDC-142188] | -17.5%
CCCCCC(C)C(C)c1cc(O)c2c(c1)OC1(C(C)C)CC(O)C(C)C2C1 (stereo not shown) [TCMDC-142232] | 44.6%
